Non-standard residues stand in square brackets, D forms with d. Residues, ends and D or L forms follow the SMILES beside them. pGlu = O=C1CC[C@@H](C(=O)O)N1; azaGly = NNC(=O)O
How the values were obtained:
[1] = tested on: human placental GnRH receptor; assay: Placental GnRH receptor binding, 125I-Buserelin label; conditions: Buserelin label
Method: The newly synthesized non-mammalian GnRH analogs and other commercially available mammalian GnRH analogs were used in placental receptors binding and enzyme stability study described here. […] GnRH receptors were purified from the membrane fractions from placentas. The purification procedure for the placental GnRH receptor was performed using a modification of the method described by Bramley et al., which reference is specifically incorporated herein by reference for the purpose. Addition of enzyme inhibitors for the endogenous C-ase-1 were used as well as agents for receptor stabilization. Initially, receptor-binding assays using ^125I-Buserelin as label were performed. The competitive binding of each of the analogs was studied over a dose range of 10^−11 to 10^−6 M. Incubation was at room temperature and receptor bound label was precipitated with polyethylene glycol. Specific and non-specific binding was determined. The data was subjected to Scatchard analysis. The non-mammalian GnRH analogs' ability to bind to the placental GnRH receptor was compared to that for synthetic mammalian GnRH (SEQ ID NO: 5), Buserelin (SEQ ID NO: 10) and other mammalian analogs. […] This way, the receptor affinity for that analog could be precisely determined. Receptors from three different term placentas were used to study each of these analogs. […] Bramley T A, McPhie C A, Menzies G S 1994 Human placental gonadotropin-releasing hormone (GnRH) binding sites: 111. […] Placenta 15:733-745.
In these and additional studies, placental GnRH receptors were purified from human term placentas after homogenization in 40 mM Tris (pH 7.4) and filtered through cheesecloth, followed by an initial centrifugation at 1,000×g for 10 minutes. The resulting supernatant was, again, centrifuged at 35,000×g for 30 minutes and the membrane pellet was collected and resuspended in Tris buffer with 0.3 M sucrose. The protein concentration was determined. Membranes were stored frozen at −20 C until use. Before use, placental membranes were diluted to 5,000 μg/mL with Tris buffer containing 0.5% BSA and 50 U/mL bacitracin. […] Following incubation at room temperature for 4 hours, the bound and free hormones were separated using polyethylene glycol precipitation, followed by centrifugation. The binding affinity for each GnRH isoform or analog was calculated using the double reciprocal plot of bound versus free ligand. Each study was done using three different human term placental tissues.
Receptor assays were performed by incubating human term placental GnRH receptors with varying concentrations of GnRH or its analogs in the presence of ^125I-Buserelin. The reaction was stopped and the bound hormone precipitated with polyethylene glycol.

rhesus monkey = assay: Contraceptive activity in mated rhesus monkeys, osmotic mini-pump; assay type: in vivo
Text: In these studies we examined the effect of a stable analog of chicken II GnRH on ovarian steroidogenesis, implantation and maintainence of pregnancy in the rhesus monkey. We administered this chicken II GnRH analog (SEQ ID NO: 2) or saline via osmotic mini-pumps from Day 1-6, Day 6-11 or Day 11-17 to regularly cycling monkeys mated with fertile males around the time of ovulation. Circulating estradiol (E2) and progesterone (P) in the luteal phase was observed as well as cycle length in this and subsequent cycle. Implantation and pregnancy were confirmed by circulating CG and continued progesterone production. […] In animals treated on day 6-11 or days 11-17, no effect on luteinization or cycle length was noted; and two of five (40.0%), and one of three animals (33.3%), respectively, implanted with normal pregnancies resulting.

[2] = target: baboon endometrium (stroma and epithelium) receptor; assay: Baboon endometrium receptor binding; conditions: read-out: receptor affinity
Text: Due to the limited number of cells it was not possible to precisely define the affinity of this receptor.

Question: Which “receptor binding potency compared with chicken II GnRH isoform or Buserelin” value ([1]; Example II) does the source give for N=C(N)NCCC[C@@H](NC(=O)[C@H](Cc1c[nH]cn1)NC(=O)[C@H](CO)NC(=O)[C@H](Cc1c[nH]c2ccccc12)NC(=O)[C@H](Cc1c[nH]cn1)NC(=O)[C@@H]1CCC(=O)N1)C(=O)N[C@@H](Cc1c[nH]c2ccccc12)C(=O)N[C@@H](Cc1ccc(O)cc1)C(=O)N1CCC[C@H]1C(=O)NNC(N)=O [D-Arg(6)-chicken II GnRH-aza-Gly(10)-amide] ([pGlu]HWSH[dR]WYP[azaGly]-NH2) here?
Answer: 2 fold

Question: And the “receptor binding potency compared with mammalian GnRH” value ([1]; Example II)?
Answer: 60 fold

Question: What about the Kd ([1]; term placental membranes, read-out: dissociation constant (Kd)) of the same compound?
Answer: 175 ± 59 nM

Question: What about the pregnancies (rhesus monkey; treated Day 1-6) of the same compound?
Answer: no pregnancies resulted

Question: And the “effect on progesterone production or cycle length” value (rhesus monkey; treated day 1-6)?
Answer: no significant effect

Question: And the “animals implanted with normal pregnancies” value (rhesus monkey; treated day 6-11, two of five)?
Answer: 40.0%

Question: And the “effect on luteinization or cycle length” value (rhesus monkey; treated day 6-11 or days 11-17)?
Answer: no effect

Question: And the “animals implanted with normal pregnancies” value (rhesus monkey; treated days 11-17, one of three)?
Answer: 33.3%

Question: And the Kd [2]?
Answer: ~60 nM

From patent US20050282745A1, “Non-mammalian GnRH analogs and uses thereof in regulation of fertility and pregnancy” (priority 2001, published 2005)
